From US20240158446A1, “CYCLIC COMPOUND HAVING SELECTIVE INHIBITORY ACTION ON KRAS OVER HRAS AND NRAS” (CHUGAI SEIYAKU KABUSHIKI KAISHA, priority 2021, published 2024)
Where two headings read alike, the source gives them in different places. *1 amine or outer side, *2 acyl side, *3 side chain or, on linkers, in order; H or OH if unused. Where a SMILES comes first, the peptide text is derived from it. Bridges are numbered along the chain shown (N, C = ends). [ ]: non-standard residue; d: D form. The star is where a group is joined. hPhe(3,5-F2-4-CF3) = N[C@@H](CCc1cc(F)c(C(F)(F)F)c(F)c1)C(=O)O; hPhe(3-Cl-4-CF3) = N[C@@H](CCc1ccc(C(F)(F)F)c(Cl)c1)C(=O)O; NPrPhe(4-CF3) = CCCN[C@@H](Cc1ccc(C(F)(F)F)cc1)C(=O)O; NMeGly(cPent) = CN[C@H](C(=O)O)C1CCCC1; X8 = C[C@@](N[*:1])(C(=O)[*:2])C1CC1; Hyp = O=C(O)[C@@H]1C[C@@H](O)CN1; NMeD = CN[C@@H](CC(=O)O)C(=O)O; NMeL = CN[C@@H](CC(C)C)C(=O)O; αMeV = CC(C)[C@](C)(N)C(=O)O; Morpholide = C1CN(*)CCO1; NMeA = CN[C@@H](C)C(=O)O; Ac5c = NC1(C(=O)O)CCCC1; Aze = O=C(O)[C@@H]1CCN1; Ac4c = NC1(C(=O)O)CCC1; Aib = CC(C)(N)C(=O)O; NEtG = CCNCC(=O)O; Sar = CNCC(=O)O

What was measured:
[1] = target: GDP-bound NRAS wild-type protein (Homo sapiens, UniProt P01111); assay: Binding to NRAS by surface plasmon resonance (SPR), Single Cycle Kinetics; conditions: SPR, GDP-bound NRAS wild-type protein vs GDP-bound KRAS wild-type protein
Sequence of GDP-bound NRAS wild-type protein (P01111 whole entry): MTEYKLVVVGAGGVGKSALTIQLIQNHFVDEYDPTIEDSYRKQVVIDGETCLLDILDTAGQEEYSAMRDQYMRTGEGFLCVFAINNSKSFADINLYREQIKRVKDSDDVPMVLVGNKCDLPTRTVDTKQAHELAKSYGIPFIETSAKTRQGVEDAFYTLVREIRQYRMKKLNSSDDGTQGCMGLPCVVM

[2] = target: GDP-bound HRAS wild-type protein (Homo sapiens, UniProt P01112); assay: Binding to HRAS by surface plasmon resonance (SPR), Single Cycle Kinetics; conditions: SPR, GDP-bound HRAS wild-type protein vs GDP-bound KRAS wild-type protein
Sequence of GDP-bound HRAS wild-type protein (P01112 whole entry): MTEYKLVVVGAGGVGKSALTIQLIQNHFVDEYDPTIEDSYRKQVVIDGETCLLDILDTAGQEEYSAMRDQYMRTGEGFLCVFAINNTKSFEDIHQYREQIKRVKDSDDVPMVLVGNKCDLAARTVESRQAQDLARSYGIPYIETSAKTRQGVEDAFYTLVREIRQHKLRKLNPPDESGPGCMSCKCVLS

[3] = target: GDP-bound KRAS wild-type protein (Homo sapiens, UniProt P01116); assay: Binding to KRAS by surface plasmon resonance (SPR), Single Cycle Kinetics; conditions: GDP-bound KRAS wild-type protein, read-out: KRAS KD
Sequence of GDP-bound KRAS wild-type protein (P01116 whole entry): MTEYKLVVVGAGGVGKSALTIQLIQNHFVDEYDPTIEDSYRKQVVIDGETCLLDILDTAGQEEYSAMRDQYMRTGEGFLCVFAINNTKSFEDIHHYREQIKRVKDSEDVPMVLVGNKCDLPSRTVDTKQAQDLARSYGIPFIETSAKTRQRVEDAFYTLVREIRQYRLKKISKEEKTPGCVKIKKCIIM

[4] = SPR Single Cycle Kinetics, 1:1 binding model
[5] = SPR, Single Cycle Kinetics, 1:1 binding model

Row | Compound | NRAS/KRAS (ratio of KD value for NRAS to KD value for KRAS) [1] | HRAS/KRAS (ratio of KD value for HRAS to KD value for KRAS) [2] | Kd [3, 4] | Kd ([3]; SPR, Single Cycle Kinetics) | also measured
1 | CCCN1C(=O)[C@@H]2CCN2C(=O)[C@H](C)N(C)C(=O)[C@H]([C@@H](C)CC)NC(=O)[C@H](CC(C)C)N(C)C(=O)C[C@@H](C(=O)N2CCOCC2)N(C)C(=O)[C@H](C2CCCC2)N(C)C(=O)C(C)(C)NC(=O)[C@@H]2CCCN2C(=O)[C@H](CCc2ccc(C(F)(F)F)c(Cl)c2)NC(=O)CN(C)C(=O)[C@@H]1Cc1ccc(C(F)(F)F)cc1 [PP0225] ([NMeL]I[NMeA][Aze][NPrPhe(4-CF3)][Sar][hPhe(3-Cl-4-CF3)]P[Aib][NMeGly(cPent)][NMeD]-Morpholide; lactam N-11) | C (A compound having a KD ratio of 0.1 or more and less than 3 is denoted as C) | C (A compound having a KD ratio of 0.1 or more and less than 3 is denoted as C) | 0.23 nM |  | 
2 | CCO[C@@H]1C[C@H]2C(=O)NC3(CCCC3)C(=O)N(C)[C@@H](C3CCCC3)C(=O)N(C)[C@H](C(=O)N3CCOCC3)CC(=O)N(C)[C@@H](CC(C)C)C(=O)N[C@@H]([C@@H](C)CC)C(=O)N(C)CC(=O)N(C)[C@H]3CCCCCN(C3=O)[C@@H](Cc3ccc(C(F)(F)F)cc3)C(=O)N(C)CC(=O)N[C@@H](CCc3cc(F)c(C(F)(F)F)c(F)c3)C(=O)N2C1 [PP0492] |  |  | 1.2 nM |  | NRAS/KRAS (ratio of KD value with respect to NRAS to KD value with respect to KRAS) [1]: B (a compound having 3 or more and less than 10 is denoted as B); HRAS/KRAS (ratio of KD value with respect to HRAS to KD value with respect to KRAS) [2]: B (a compound having 3 or more and less than 10 is denoted as B)
3 | CCO[C@@H]1C[C@H]2C(=O)NC3(CCCC3)C(=O)N(C)[C@@H](C3CCCC3)C(=O)N(C)[C@H](C(=O)N(C)CC)CC(=O)N(C)[C@@H](CC(C)C)C(=O)N[C@@H]([C@@H](C)CC)C(=O)N(C)CC(=O)N(C)[C@H]3C/C=C\CCN(C3=O)[C@@H](Cc3ccc(C(F)(F)F)cc3)C(=O)N(C)CC(=O)N[C@@H](CCc3cc(F)c(C(F)(F)F)c(F)c3)C(=O)N2C1 [PP1574, (2S,8S,12R,14S,20S,23S,27S,30S,36S,38Z)-20-cyclopentyl-8-[2-[3,5-difluoro-4-(trifluoromethyl)phenyl]ethyl]-12-ethoxy-N-ethyl-27-isobutyl-N,4,19,22,26,32,35-heptamethyl-30-[(1S)-1-methylpropyl]-3,6,9,15,18,21,25,28,31,34,42-undecaoxo-2-[[4-(trifluoromethyl)phenyl]methyl]spiro[1,4,7,10,16,19,22,26,29,32,35-undecazatricyclo[34.5.1.0^10,14]dotetracont-38-ene-17,1′-cyclopentane]-23-carboxamide] |  |  |  |  | NRAS/KRAS (ratio of KD value for NRAS to KD value for KRAS) ([1]; KD ratio class): A (a compound having 10 or more and less than 20 is denoted as A); HRAS/KRAS (ratio of KD value for HRAS to KD value for KRAS) ([2]; KD ratio class): A (a compound having 10 or more and less than 20 is denoted as A); Kd [3, 5]: 0.15 nM
4 | CCCN1C(=O)CN(C)C(=O)CN(CC)C(=O)[C@H]([C@@H](C)CC)NC(=O)[C@H](CC(C)C)N(C)C(=O)C[C@@H](C(=O)N(C)C)NC(=O)[C@H](C2CCCC2)N(C)C(=O)C2(CCC2)NC(=O)[C@@H]2C[C@@H](OCC)CN2C(=O)[C@H](CCc2ccc(C(F)(F)F)c(Cl)c2)NC(=O)CN(C)C(=O)[C@@H]1Cc1ccc(C(F)(F)F)cc1 [PP0372] ([NMeL]I[NEtG][Sar][NPrPhe(4-CF3)][Sar][hPhe(3-Cl-4-CF3)][Hyp](Et)[Ac4c][NMeGly(cPent)]D-NMe2; lactam N-11) | B (a compound having 3 or more and less than 10 is denoted as B) | B (a compound having 3 or more and less than 10 is denoted as B) | 0.79 nM |  | 
5 | CCCN1C(=O)CN(C)C(=O)CNC(=O)[C@H]([C@@H](C)CC)NC(=O)[C@H](CC(C)C)N(C)C(=O)C[C@@H](C(=O)N(C)C)NC(=O)[C@H](C2CCCC2)N(C)C(=O)C2(CCCC2)NC(=O)[C@@H]2CCCN2C(=O)[C@H](CCc2ccc(C(F)(F)F)c(Cl)c2)NC(=O)CN(C)C(=O)[C@@H]1Cc1ccc(C(F)(F)F)cc1 [PP0361] ([NMeL]IG[Sar][NPrPhe(4-CF3)][Sar][hPhe(3-Cl-4-CF3)]P[Ac5c][NMeGly(cPent)]D-NMe2; lactam N-11) | B (a compound having 3 or more and less than 10 is denoted as B) | C (A compound having a KD ratio of 0.1 or more and less than 3 is denoted as C) | 0.72 nM |  | 
6 | CCO[C@@H]1C[C@H]2C(=O)NC3(CCC3)C(=O)N(C)[C@@H](C3CCCC3)C(=O)N(C)[C@H](C(=O)N(C)C)CC(=O)N(C)[C@@H](CC)C(=O)N[C@@H]([C@@H](C)CC)C(=O)N[C@@H](C)C(=O)N(C)[C@H]3C/C=C\CCN(C3=O)[C@@H](Cc3ccc(C(F)(F)F)cc3)C(=O)N(C)CC(=O)N[C@@H](CCc3cc(F)c(C(F)(F)F)c(F)c3)C(=O)N2C1 [PP1065] | A (a compound having 10 or more and less than 20 is denoted as A) | B (a compound having 3 or more and less than 10 is denoted as B) |  | 0.45 nM | 
7 | CCCN1C(=O)[C@@H]2CCN2C(=O)CN(C)C(=O)[C@H]([C@@H](C)CC)NC(=O)[C@H](CC(C)C)N(C)C(=O)C[C@@H](C(=O)N2CCOCC2)N(C)C(=O)[C@H](C2CCCC2)N(C)C(=O)[C@](C)(C2CC2)NC(=O)[C@@H]2CCCN2C(=O)[C@H](CCc2cc(F)c(C(F)(F)F)c(F)c2)NC(=O)CN(C)C(=O)[C@@H]1Cc1ccc(C(F)(F)F)cc1 [PP0791] ([NMeL]I[Sar][Aze][NPrPhe(4-CF3)][Sar][hPhe(3,5-F2-4-CF3)]P[X8][NMeGly(cPent)][NMeD]-Morpholide; lactam N-11) |  |  | 0.98 nM |  | NRAS/KRAS (ratio of KD value with respect to NRAS to KD value with respect to KRAS) [1]: C (A compound having a KD ratio of 0.1 or more and less than 3 is denoted as C); HRAS/KRAS (ratio of KD value with respect to HRAS to KD value with respect to KRAS) [2]: B (a compound having 3 or more and less than 10 is denoted as B)
8 | CCCN1C(=O)[C@@H]2CCN2C(=O)CN(C)C(=O)[C@H]([C@@H](C)CC)NC(=O)[C@H](CC(C)C)N(C)C(=O)C[C@@H](C(=O)N2CCOCC2)N(C)C(=O)[C@H](C2CCCC2)N(C)C(=O)[C@](C)(C(C)C)NC(=O)[C@@H]2CCCN2C(=O)[C@H](CCc2cc(F)c(C(F)(F)F)c(F)c2)NC(=O)CN(C)C(=O)[C@@H]1Cc1ccc(C(F)(F)F)cc1 [PP0792] ([NMeL]I[Sar][Aze][NPrPhe(4-CF3)][Sar][hPhe(3,5-F2-4-CF3)]P[αMeV][NMeGly(cPent)][NMeD]-Morpholide; lactam N-11) |  |  | 0.9 nM |  | NRAS/KRAS (ratio of KD value with respect to NRAS to KD value with respect to KRAS) [1]: C (A compound having a KD ratio of 0.1 or more and less than 3 is denoted as C); HRAS/KRAS (ratio of KD value with respect to HRAS to KD value with respect to KRAS) [2]: B (a compound having 3 or more and less than 10 is denoted as B)
9 | CCO[C@@H]1C[C@H]2C(=O)NC3(CCC3)C(=O)N(C)[C@@H](C3CCCC3)C(=O)N(C)[C@H](C(=O)N(CC)CC)CC(=O)N(C)[C@@H](C)C(=O)N[C@@H]([C@@H](C)CC)C(=O)N(C)CC(=O)N(C)[C@H]3C/C=C\CCN(C3=O)[C@@H](Cc3ccc(C(F)(F)F)cc3)C(=O)N(C)CC(=O)N[C@@H](CCc3cc(F)c(C(F)(F)F)c(F)c3)C(=O)N2C1 [PP1308, (2S,8S,12R,14S,20S,23S,27S,30S,36S,38Z)-20-cyclopentyl-8-[2-[3,5-difluoro-4-(trifluoromethyl)phenyl]ethyl]-12-ethoxy-N,N-diethyl-4,19,22,26,27,32,35-heptamethyl-30-[(1S)-1-methylpropyl]-3,6,9,15,18,21,25,28,31,34,42-undecaoxo-2-[[4-(trifluoromethyl)phenyl]methyl]spiro[1,4,7,10,16,19,22,26,29,32,35-undecazatricyclo[34.5.1.0^10,14]dotetracont-38-ene-17,1′-cyclobutane]-23-carboxamide] |  |  |  |  | NRAS/KRAS (ratio of KD value for NRAS to KD value for KRAS) ([1]; KD ratio class): A (a compound having 10 or more and less than 20 is denoted as A); HRAS/KRAS (ratio of KD value for HRAS to KD value for KRAS) ([2]; KD ratio class): A (a compound having 10 or more and less than 20 is denoted as A); Kd [3, 5]: 0.1 nM
10 | CC[C@H](C)[C@@H]1NC(=O)[C@H](COC)N(C)C(=O)C[C@@H](C(=O)N2CCOCC2)N(C)C(=O)[C@H](C2CCCC2)N(C)C(=O)C2(CCCC2)NC(=O)[C@@H]2CCCN2C(=O)[C@H](CCc2cc(F)c(C(F)(F)F)c(F)c2)NC(=O)CN(C)C(=O)[C@H](Cc2ccc(C(F)(F)F)cc2)N2CCCCC[C@@H](C2=O)N(C)C(=O)CN(C)C1=O [PP0845] | B (a compound having 3 or more and less than 10 is denoted as B) | B (a compound having 3 or more and less than 10 is denoted as B) |  | 2.2 nM | 
11 | CCCN(C)C(=O)[C@@H]1CC(=O)N(C)[C@@H](C2CC2)C(=O)N[C@@H]([C@@H](C)CC)C(=O)N(C)CC(=O)N(C)[C@H]2C/C=C\CCN(C2=O)[C@@H](Cc2ccc(C(F)(F)F)cc2)C(=O)N(C)CC(=O)N[C@@H](CCc2ccc(C(F)(F)F)c(OC)c2)C(=O)N2C[C@@H](C)C[C@H]2C(=O)NC2(CCC2)C(=O)N(C)[C@@H](C2CCCC2)C(=O)N1C [PP2070] | A (a compound having 10 or more and less than 20 is denoted as A) | A (a compound having 10 or more and less than 20 is denoted as A) |  | 0.11 nM | 
12 | CCO[C@@H]1C[C@H]2C(=O)NC3(CCC3)C(=O)N(C)[C@@H](C3CCCC3)C(=O)N(C)[C@H](C(=O)N(C)C)CC(=O)N(C)[C@@H](CC)C(=O)N[C@@H]([C@@H](C)CC)C(=O)N(C)CC(=O)N(C)[C@H]3CCCCN(C3=O)[C@@H](Cc3ccc(C(F)(F)F)cc3)C(=O)N(C)CC(=O)N[C@@H](CCc3ccc(C(F)(F)F)c(C)c3)C(=O)N2C1 [PP0882] | C (A compound having a KD ratio of 0.1 or more and less than 3 is denoted as C) | B (a compound having 3 or more and less than 10 is denoted as B) |  | 0.02 nM | 
